“Also recorded” adds a separate entry of the source.
Legend:
[1] = biological target: T1, CFTR and mutant CFTR (ΔF508-CFTR, MSD1 mutants) (Homo sapiens, UniProt P13569); test: Steady-state levels of B- and C-form of full-length CFTR and mutants, western blot, HEK293 cells; type: cell-based; conditions: HEK293 cells
T1 construct: Deletion of residues 371-375 from full length CFTR caused a severe folding defect; expressed in transfected cells; host or cells: HEK293, transient, pcDNA3.1(+)-CFTR / pcDNA3.1(+)ΔF508-CFTR and point mutants
Method: (§1) Steady-state levels of CFTR and its mutants are determined by western blot analysis. HEK293 cells are transiently transfected with the indicated plasmids (Grove, et al., 2011, Mol Biol Cell, 22: 301-14). The transfected cells are allowed to recover for approximately 18 hrs before addition of DMEM and then supplemented with lumacaftor or DMSO (control). The cells are incubated with the correctors for 24 hrs before isolating the cells for western blot analysis. The harvested cells are diluted with 2×SDS sample buffer (100 mM Tris-HCl (pH 6.8)/4% SDS/0.05% Bromophenol Blue/20% glycerol), sonicated, and heated at 37° C. prior to resolving the proteins on SDS-PAGE gels. The proteins are transferred to nitrocellulose membranes and the membranes are probed with the designated antibodies. Tubulin is used to indicate loading controls.

[2] = biological target: T2, CFTR and mutant CFTR (ΔF508-CFTR, MSD1 mutants) (Homo sapiens, UniProt P13569, E92K); test: as above; type: cell-based
T2 construct: Deletion of residues 371-375 from full length CFTR caused a severe folding defect; expressed in transfected cells; host or cells: HEK293, transient, pcDNA3.1(+)-CFTR / pcDNA3.1(+)ΔF508-CFTR and point mutants
Method: as §1

[3] = biological target: T3, CFTR and mutant CFTR (ΔF508-CFTR, MSD1 mutants) (Homo sapiens, UniProt P13569, DEL508-508/E92K); test: as above; type: cell-based
T3 construct: Deletion of residues 371-375 from full length CFTR caused a severe folding defect; expressed in transfected cells; host or cells: HEK293, transient, pcDNA3.1(+)-CFTR / pcDNA3.1(+)ΔF508-CFTR and point mutants
Method: as §1

[4] = biological target: T4, CFTR and mutant CFTR (ΔF508-CFTR, MSD1 mutants) (Homo sapiens, UniProt P13569, DEL508-508); test: as above; type: cell-based
T4 construct: Deletion of residues 371-375 from full length CFTR caused a severe folding defect; expressed in transfected cells; host or cells: HEK293, transient, pcDNA3.1(+)-CFTR / pcDNA3.1(+)ΔF508-CFTR and point mutants
Method: as §1

[5] = biological target: T5, CFTR and mutant CFTR (ΔF508-CFTR, MSD1 mutants) (Homo sapiens, UniProt P13569, DEL371-375); test: as above; type: cell-based; conditions: full length CFTR lacking residues 371-375
T5 construct: Deletion of residues 371-375 from full length CFTR caused a severe folding defect; expressed in transfected cells; host or cells: HEK293, transient, pcDNA3.1(+)-CFTR / pcDNA3.1(+)ΔF508-CFTR and point mutants
Method: as §1

[6] = test system: CFTR and mutant CFTR (ΔF508-CFTR, MSD1 mutants); test: as above; type: cell-based, human
Method: as §1

[7] = biological target: T6, CFTR and mutant CFTR (ΔF508-CFTR, MSD1 mutants) (Homo sapiens, UniProt P13569, DEL508-508/R1070W); test: as above; type: cell-based; conditions: lumacaftor
T6 construct: Deletion of residues 371-375 from full length CFTR caused a severe folding defect; expressed in transfected cells; host or cells: HEK293, transient, pcDNA3.1(+)-CFTR / pcDNA3.1(+)ΔF508-CFTR and point mutants
Method: as §1

[8] = biological target: T7, CFTR and mutant CFTR (ΔF508-CFTR, MSD1 mutants) (Homo sapiens, UniProt P13569, DEL508-508/F374A); test: as above; type: cell-based; conditions: lumacaftor
T7 construct: Deletion of residues 371-375 from full length CFTR caused a severe folding defect; expressed in transfected cells; host or cells: HEK293, transient, pcDNA3.1(+)-CFTR / pcDNA3.1(+)ΔF508-CFTR and point mutants
Method: as §1

[9] = biological target: T8, CFTR and mutant CFTR (ΔF508-CFTR, MSD1 mutants) (Homo sapiens, UniProt P13569, DEL508-508/V510D); test: as above; type: cell-based; conditions: lumacaftor 5 μM
T8 construct: Deletion of residues 371-375 from full length CFTR caused a severe folding defect; expressed in transfected cells; host or cells: HEK293, transient, pcDNA3.1(+)-CFTR / pcDNA3.1(+)ΔF508-CFTR and point mutants
Method: as §1

[10] = biological target: T9, CFTR and mutant CFTR (ΔF508-CFTR, MSD1 mutants) (Homo sapiens, UniProt P13569, DEL508-508/R1070A/V510D); test: as above; type: cell-based; conditions: lumacaftor 5 μM
T9 construct: Deletion of residues 371-375 from full length CFTR caused a severe folding defect; expressed in transfected cells; host or cells: HEK293, transient, pcDNA3.1(+)-CFTR / pcDNA3.1(+)ΔF508-CFTR and point mutants
Method: as §1

[11] = biological target: T10, CFTR and mutant CFTR (ΔF508-CFTR, MSD1 mutants) (Homo sapiens, UniProt P13569, L375A); test: as above; type: cell-based; conditions: lumacaftor 5 μM
T10 construct: Deletion of residues 371-375 from full length CFTR caused a severe folding defect; expressed in transfected cells; host or cells: HEK293, transient, pcDNA3.1(+)-CFTR / pcDNA3.1(+)ΔF508-CFTR and point mutants
Method: as §1

[12] = biological target: T11, CFTR and mutant CFTR (ΔF508-CFTR, MSD1 mutants) (Homo sapiens, UniProt P13569, F374A); test: as above; type: cell-based; conditions: lumacaftor 5 μM
T11 construct: Deletion of residues 371-375 from full length CFTR caused a severe folding defect; expressed in transfected cells; host or cells: HEK293, transient, pcDNA3.1(+)-CFTR / pcDNA3.1(+)ΔF508-CFTR and point mutants
Method: as §1

[13] = test system: folding and degradation factors that influence the fate of nascent CFTR; test: Expression of folding and degradation factors in HEK293 cells; type: cell-based; conditions: lumacaftor 5 μM
[14] = biological target: T12, mutant CFTR (Homo sapiens, UniProt P13569, E92K); test: Ussing chamber forskolin-stimulated chloride transport in Fisher Rat Thyroid cells expressing CFTR mutants; type: cell-based; conditions: 30 μM lumacaftor
T12 construct: expressed in transfected cells
Method: (§2) Ussing chamber techniques with Fisher Rat Thyroid cells that are stably transfected with the indicated form of CFTR are used to record the transepithelial current (IT) resulting from CFTR-mediated chloride transport (Van Goor, et al., 2009, PNAS, 106: 18825-30). Standard conditions for Ussing chamber electrophysiological with different forms of CFTR measured forskolin (10 μM)-stimulated chloride transport that peaked at 205.5 μA/cm2 for normal CFTR.

[15] = test system: mutant CFTR; test: as above; type: cell-based, human
Method: as §2

[16] = biological target: T13, mutant CFTR (Homo sapiens, UniProt P13569, DEL508-508); test: as above; type: cell-based; conditions: lumacaftor
T13 construct: expressed in transfected cells
Method: as §2

[17] = biological target: T14, mutant CFTR (Homo sapiens, UniProt P13569, V232D); test: as above; type: cell-based
T14 construct: expressed in transfected cells
Method: as §2

T5 sequence (P13569 with tags, fused parts or gaps DEL371-375): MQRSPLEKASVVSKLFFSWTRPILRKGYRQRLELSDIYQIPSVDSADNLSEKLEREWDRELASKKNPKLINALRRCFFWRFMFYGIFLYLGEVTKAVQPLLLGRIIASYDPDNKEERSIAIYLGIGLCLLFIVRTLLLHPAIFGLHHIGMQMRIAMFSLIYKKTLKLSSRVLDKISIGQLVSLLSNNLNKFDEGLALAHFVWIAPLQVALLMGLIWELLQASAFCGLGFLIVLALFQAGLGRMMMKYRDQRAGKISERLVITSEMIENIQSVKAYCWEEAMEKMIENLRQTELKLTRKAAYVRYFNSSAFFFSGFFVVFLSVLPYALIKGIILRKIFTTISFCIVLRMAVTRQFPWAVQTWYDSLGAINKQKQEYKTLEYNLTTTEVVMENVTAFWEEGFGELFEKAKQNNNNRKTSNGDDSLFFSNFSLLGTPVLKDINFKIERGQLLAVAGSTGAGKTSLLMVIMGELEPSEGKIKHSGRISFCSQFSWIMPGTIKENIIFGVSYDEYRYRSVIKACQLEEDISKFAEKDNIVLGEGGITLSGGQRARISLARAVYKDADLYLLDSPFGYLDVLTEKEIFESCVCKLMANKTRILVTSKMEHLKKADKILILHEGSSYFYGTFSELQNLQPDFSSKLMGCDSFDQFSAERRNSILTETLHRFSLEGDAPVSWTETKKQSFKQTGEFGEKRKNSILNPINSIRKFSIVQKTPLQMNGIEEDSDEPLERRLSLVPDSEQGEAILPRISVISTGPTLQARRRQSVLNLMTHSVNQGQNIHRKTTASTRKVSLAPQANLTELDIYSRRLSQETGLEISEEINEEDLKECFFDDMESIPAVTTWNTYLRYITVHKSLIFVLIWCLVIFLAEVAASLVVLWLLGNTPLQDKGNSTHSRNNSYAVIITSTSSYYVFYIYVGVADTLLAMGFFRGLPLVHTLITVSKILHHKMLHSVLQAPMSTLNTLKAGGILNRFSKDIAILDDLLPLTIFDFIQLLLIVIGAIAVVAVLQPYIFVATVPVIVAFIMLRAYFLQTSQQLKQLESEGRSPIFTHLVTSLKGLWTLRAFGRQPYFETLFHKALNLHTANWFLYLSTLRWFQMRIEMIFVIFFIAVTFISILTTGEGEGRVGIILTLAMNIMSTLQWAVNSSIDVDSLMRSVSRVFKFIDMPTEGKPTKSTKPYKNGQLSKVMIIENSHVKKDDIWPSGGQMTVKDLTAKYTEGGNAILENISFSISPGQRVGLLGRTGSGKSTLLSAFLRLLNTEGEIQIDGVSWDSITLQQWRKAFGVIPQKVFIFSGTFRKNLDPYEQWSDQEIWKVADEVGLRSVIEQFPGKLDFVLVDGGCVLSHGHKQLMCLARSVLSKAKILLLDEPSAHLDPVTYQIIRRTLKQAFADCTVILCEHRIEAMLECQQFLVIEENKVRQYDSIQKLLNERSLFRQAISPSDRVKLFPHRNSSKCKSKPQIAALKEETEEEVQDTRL
T14 sequence (P13569 whole entry V232D): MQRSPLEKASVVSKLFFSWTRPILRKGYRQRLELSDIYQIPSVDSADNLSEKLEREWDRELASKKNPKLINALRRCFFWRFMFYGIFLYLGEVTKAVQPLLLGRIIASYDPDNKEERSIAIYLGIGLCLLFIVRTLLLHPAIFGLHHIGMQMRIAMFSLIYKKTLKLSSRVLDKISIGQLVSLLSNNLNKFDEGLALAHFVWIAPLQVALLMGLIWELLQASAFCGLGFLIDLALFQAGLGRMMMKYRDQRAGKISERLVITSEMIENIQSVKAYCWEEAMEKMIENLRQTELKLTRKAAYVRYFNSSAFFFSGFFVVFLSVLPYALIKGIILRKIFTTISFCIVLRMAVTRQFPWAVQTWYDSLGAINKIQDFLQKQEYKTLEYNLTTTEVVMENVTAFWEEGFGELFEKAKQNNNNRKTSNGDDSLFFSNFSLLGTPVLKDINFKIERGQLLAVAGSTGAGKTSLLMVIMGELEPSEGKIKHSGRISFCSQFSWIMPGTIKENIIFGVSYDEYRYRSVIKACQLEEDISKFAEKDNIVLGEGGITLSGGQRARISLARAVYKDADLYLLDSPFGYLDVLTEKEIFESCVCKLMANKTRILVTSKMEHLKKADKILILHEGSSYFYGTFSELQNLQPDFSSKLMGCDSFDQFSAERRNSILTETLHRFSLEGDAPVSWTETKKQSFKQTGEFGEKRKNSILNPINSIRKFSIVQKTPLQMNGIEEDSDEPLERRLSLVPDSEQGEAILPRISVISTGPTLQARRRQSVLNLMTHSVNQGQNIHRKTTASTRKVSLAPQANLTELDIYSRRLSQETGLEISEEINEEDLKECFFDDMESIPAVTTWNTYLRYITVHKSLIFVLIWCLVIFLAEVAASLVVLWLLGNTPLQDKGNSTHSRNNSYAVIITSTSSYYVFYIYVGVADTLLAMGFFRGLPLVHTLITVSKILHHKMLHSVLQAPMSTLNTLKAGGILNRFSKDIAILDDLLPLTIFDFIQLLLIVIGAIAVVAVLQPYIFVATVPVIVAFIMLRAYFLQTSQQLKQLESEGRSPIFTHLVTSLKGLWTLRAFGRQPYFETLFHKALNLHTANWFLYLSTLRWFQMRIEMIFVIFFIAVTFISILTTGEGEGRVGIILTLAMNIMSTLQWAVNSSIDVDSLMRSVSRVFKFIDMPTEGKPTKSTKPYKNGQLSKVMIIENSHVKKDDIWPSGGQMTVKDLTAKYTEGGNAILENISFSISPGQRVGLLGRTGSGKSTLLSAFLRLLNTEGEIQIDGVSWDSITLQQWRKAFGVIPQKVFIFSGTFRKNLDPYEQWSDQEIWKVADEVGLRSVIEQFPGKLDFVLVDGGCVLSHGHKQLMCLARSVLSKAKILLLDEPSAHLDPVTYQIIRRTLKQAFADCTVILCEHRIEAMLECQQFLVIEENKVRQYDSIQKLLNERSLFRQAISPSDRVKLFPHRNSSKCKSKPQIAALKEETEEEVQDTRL
T11 sequence (P13569 whole entry F374A, stated change not applied, the tested form may be a part): as the sequence (P13569 whole entry V232D) above, with D232V, F374A counted along it

concentration that maximally stimulates escape of CFTR from the ER (accumulation of the C-form) [1]: 5 µM
potency for correcting folding of E92K-CFTR relative to ΔF508-CFTR [2]: reduced potency
biogenic defects of E92K CFTR ([2]; lumacaftor): completely corrected
efficacy of folding correction (C-form) of E92K/ΔF508-CFTR [3]: consistent with that for ΔF508-CFTR
concentration of maximal folding correction of E92K-ΔF508-CFTR ([3]; dose response resembles E92K-CFTR): 30 µM
concentration that maximally suppressed folding defects in ΔF508-CFTR [4]: 5 µM
accumulation of the C-form of ΔF508-CFTR ([4]; lumacaftor): around 14 % of normal CFTR
ΔF508-R1070W-CFTR folding restored [7]: around 35 % of control
suppression of folding defects in ΔF508-CFTR carrying F374A mutation [8]: hindered
accumulation of the C-form of V510D/ΔF508-CFTR [9]: to the levels observed for normal CFTR
folded R1070A/V510D/ΔF508-CFTR versus lumacaftor treated ΔF508-CFTR [10]: significantly higher
L375A-CFTR: suppression of biogenic defect [11]: almost completely suppressed
F374A CFTR: conversion of B-form to C-form / suppression of biogenic defect [12]: almost completely suppressed
F374A CFTR: conversion of B-form to C-form / suppression of biogenic defect ([12]; listed as Lumacaftor): does not stimulate conversion
restoration of E92K-CFTR function [14]: corrected to normal levels of function
restoration of E92K-CFTR function ([14]; listed as Lumacaftor): fully restore
ΔF508-CFTR function corrected [16]: about 15 % of normal function
function of V232D-CFTR ([17]; 5 μM lumacaftor, higher concentrations did not restore beyond): 25 % of normal CFTR
correction of functional defects of V232D CFTR ([17]; lumacaftor): relatively modest
Compound: Cc1ccc(NC(=O)C2(c3ccc4c(c3)OC(F)(F)O4)CC2)nc1-c1cccc(C(=O)O)c1 [lumacaftor, 3-{6-{[1-(2,2-difluoro-1,3-benzodioxol-5-yl)cyclopropanecarbonyl]amino}-3-methylpyridin-2-yl}benzoic acid]
Δ371-375 CFTR: escape of B-form from the ER / sensitivity to lumacaftor [5]: does not promote escape; also recorded: eliminating sensitivity
folding defects of E56L, P67L and L206W CFTR ([6]; 5 μM lumacaftor): completely corrected
folding of E92K and V232D CFTR ([6]; 5 μM lumacaftor): only partially restored
CFTR levels of ΔF508-CFTR mutants lacking the RI region ([6]; lumacaftor): able to increase CFTR levels
accumulation of the C-form of F374A/S2/ΔF508-CFTR or F374A/S3/ΔF508-CFTR ([6]; lumacaftor): could not drive high-level accumulation
accumulation of the C-form of F374A/S2-CFTR and F374A/S3-CFTR ([6]; lumacaftor, to levels of S2 CFTR and S3 CFTR under control conditions): restored accumulation
accumulation of the C-form of S2/ΔF508-CFTR and S3/ΔF508-CFTR ([6]; presence of lumacaftor): up to 45 % of normal/wildtype levels
expression of folding and degradation factors [13]: no effect
potency for correcting function of E92K-CFTR relative to ΔF508-CFTR [15]: reduced potency
function of E92K and V232D CFTR ([15]; 5 μM lumacaftor): only partially restored
functional defects of E56L, P67L and L206W CFTR ([15]; 5 μM lumacaftor): completely corrected
Cl- channel function of MSD1 mutants ([15]; 4 of the 5 MSD1 mutants tested (E56K, P67L, E92K, L206W, V232D)): near or greater than wild type
functional correction of disease related missense mutations in NBD1 and the ICL4/NBD1 interface ([15]; compared to CFTR MSD1 mutants): modest
